Experimental findings from PubChem BioAssay (NCI) are described below.

Some test systems named below: RPMI-8226 leukemia; HT29 colon; A549 NSCLC; SF-268 CNS; HL-60(TB) leukemia; SW-620 colon; OVCAR-5 ovarian; DU-145 prostate; M14 melanoma; ACHN renal.
Holding throughout (experiment): NCI anticancer screen, dose series, 48 h

Where “and” joins values, the source holds several entries; their conditions need not be identical. Equal values may be shown once.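 Grown in 96-well plates, cells were treated for 48 hours with each compound at five concentrations. Insufficient inhibition: endpoint recorded as highest concentration tested. Here, GI50 denotes the concentration required for 50% inhibition of growth. TGI: concentration producing complete growth inhibition.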 Where only a bound is given, the exact number is not on record here.

Take `Clc1cc(Cl)c(OCCCCCCN2CCNCC2)c(Cl)c1`: the GI50 is 2.11 µM with RPMI-8226 leukemia; 1.96 µM with HT29 colon; 10.6 µM in the assay on A549 NSCLC; 5.85 µM with SF-268 CNS; 1.86 µM with HL-60(TB) leukemia; 1.91 µM with SW-620 colon. Further, the GI50 with OVCAR-5 ovarian is 2.82 µM; in the assay on DU-145 prostate, 4.45 µM; in the assay on M14 melanoma, 1.84 µM; in the assay with ACHN renal, 2.44 µM. Moreover, the TGI in the assay with RPMI-8226 leukemia was 4.62 µM; in the assay on HT29 colon, 4.3 µM; in the assay with A549 NSCLC, 25.3 µM; in the assay with SF-268 CNS, 21.1 µM; with HL-60(TB) leukemia, 3.82 µM; with SW-620 colon, 3.75 µM. Also, the TGI in the assay with OVCAR-5 ovarian was determined as 8.42 µM; in the assay with DU-145 prostate it was 15.9 µM; in the assay on M14 melanoma it was 3.65 µM; in the assay on ACHN renal, 6.11 µM.
Take `O=C1CC(c2ccccc2)Cc2nc3ccc(Br)cc3cc21` (configuration not stated): the GI50 is 2.92 µM with RPMI-8226 leukemia; 0.244 µM in the assay with HT29 colon; 0.378 µM in the assay with A549 NSCLC; 4.65 µM in the assay on SF-268 CNS; 0.235 µM with HL-60(TB) leukemia; 0.362 µM in the assay on SW-620 colon. In addition, the GI50 is 0.757 µM in the assay with OVCAR-5 ovarian, 0.209 µM in the assay with DU-145 prostate, 0.0486 µM with M14 melanoma and 0.498 µM in the assay on ACHN renal. Besides, the TGI with RPMI-8226 leukemia is more than 100 µM; with HT29 colon it was more than 100 µM; with A549 NSCLC, more than 100 µM; with SF-268 CNS, more than 100 µM; with HL-60(TB) leukemia, 0.672 µM; in the assay with SW-620 colon, more than 100 µM. Also, the TGI is more than 100 µM with OVCAR-5 ovarian, more than 100 µM in the assay on DU-145 prostate, 12.4 µM with M14 melanoma and more than 100 µM in the assay with ACHN renal.
Consider `COC(=O)[C@]12CC[C@@H](C)[C@H](C)[C@@H]1C1=CC[C@@H]3[C@@]4(C)C[C@@H](OC(=O)/C=C/c5ccccc5)[C@H](O)[C@@](C)(CO)[C@@H]4[C@H](O)C[C@@]3(C)[C@]1(C)CC2`, for which the GI50 is 2.54 µM with RPMI-8226 leukemia; 1.8 µM in the assay with HT29 colon; 3.11 µM in the assay with A549 NSCLC; 2.62 µM in the assay on SF-268 CNS; 2.63 µM in the assay with HL-60(TB) leukemia; 1.93 µM with SW-620 colon. Also, the GI50 in the assay on OVCAR-5 ovarian was 2.17 µM; in the assay with DU-145 prostate, 2.39 µM; with M14 melanoma, 2.65 µM; in the assay on ACHN renal, 3.11 µM. Moreover, the TGI with RPMI-8226 leukemia came to 7.86 µM; in the assay with HT29 colon, 3.81 µM; in the assay on A549 NSCLC, 12 µM; in the assay on SF-268 CNS, 10.4 µM; with HL-60(TB) leukemia, 6.51 µM; in the assay on SW-620 colon, 4.2 µM. The TGI was 6 µM in the assay on OVCAR-5 ovarian, 5.83 µM in the assay on DU-145 prostate, 8.58 µM in the assay with M14 melanoma and 11.4 µM in the assay with ACHN renal.
As to `O=C(c1ccc(C(F)(F)F)c(Cl)c1)N(Cc1ccc(Cl)cc1)c1ccc(-c2cc(C(F)(F)F)[nH]n2)c(O)c1`, the GI50 in the assay on RPMI-8226 leukemia was 0.659 µM; in the assay on HT29 colon, 1.25 µM; in the assay with A549 NSCLC, 1.35 µM; in the assay on SF-268 CNS, 1.32 µM; in the assay with HL-60(TB) leukemia, 1.12 µM; in the assay with SW-620 colon it was 0.958 µM. For the same compound, the GI50 was 1.07 µM in the assay with OVCAR-5 ovarian, 1.43 µM in the assay with DU-145 prostate, 1.01 µM with M14 melanoma and 1.24 µM in the assay on ACHN renal. Besides, the TGI is 2.23 µM in the assay with RPMI-8226 leukemia; 5.55 µM in the assay on HT29 colon; 5.11 µM in the assay with A549 NSCLC; 5.19 µM with SF-268 CNS; 2.69 µM in the assay on HL-60(TB) leukemia; 2.4 µM in the assay on SW-620 colon. The TGI in the assay with OVCAR-5 ovarian was 4.26 µM; with DU-145 prostate it was 5.34 µM; in the assay with M14 melanoma it was 2.43 µM; with ACHN renal, 4.05 µM.
As to `Cn1cc(C2=C(c3cn(-c4ccccc4)c4ccccc34)C(=O)NC2=O)c2ccccc21`, the GI50 in the assay with RPMI-8226 leukemia is 12.1 µM; in the assay on HT29 colon, 9.56 µM; with A549 NSCLC, 11.8 µM; in the assay on SF-268 CNS, 20.4 µM; with HL-60(TB) leukemia it was 8.91 µM; in the assay with SW-620 colon it was 9.68 µM. Also, the GI50 was more than 25 µM with OVCAR-5 ovarian, more than 25 µM in the assay with DU-145 prostate, 13 µM in the assay with M14 melanoma and 17.3 µM in the assay on ACHN renal. In addition, the TGI with RPMI-8226 leukemia, in the assay on HT29 colon, in the assay with A549 NSCLC, in the assay with SF-268 CNS, in the assay on HL-60(TB) leukemia and in the assay on SW-620 colon was more than 25 µM throughout. Further, the TGI with OVCAR-5 ovarian, with DU-145 prostate, with M14 melanoma and in the assay on ACHN renal was more than 25 µM each time.
Regarding `COc1cccc(-c2cc(=O)c3cc(N4CCOCC4)ccc3[nH]2)c1`, the GI50 in the assay with RPMI-8226 leukemia was 0.135 µM; with HT29 colon, 0.0359 µM and 0.029 µM; in the assay on A549 NSCLC it was 0.225 µM; in the assay with SF-268 CNS, 0.149 µM; with SW-620 colon, 0.0125 µM; in the assay on OVCAR-5 ovarian, 0.268 µM. In addition, the GI50 with DU-145 prostate was 0.0546 µM; in the assay with M14 melanoma it was 0.0365 µM and 0.0749 µM; with ACHN renal, 0.0709 µM. Also, the TGI in the assay on HT29 colon was 0.883 µM and 0.125 µM; with A549 NSCLC, more than 100 µM; with SF-268 CNS, 57.6 µM; in the assay on HL-60(TB) leukemia it was 0.0593 µM and 0.0492 µM; with SW-620 colon, more than 100 µM; with OVCAR-5 ovarian, more than 100 µM. In addition, the TGI with M14 melanoma and in the assay with ACHN renal was more than 100 µM throughout.
Consider `COc1cc(/C=C2\CCC/C(=C\c3ccc(O)c(OC)c3)C2=O)ccc1O`, for which the GI50 is 0.397 µM in the assay on RPMI-8226 leukemia; 2.31 µM in the assay on HT29 colon; 1.96 µM with A549 NSCLC; 1.8 µM in the assay with SF-268 CNS; 0.397 µM in the assay with HL-60(TB) leukemia; 1.84 µM with SW-620 colon. Moreover, the GI50 in the assay on OVCAR-5 ovarian was 2.3 µM; in the assay with DU-145 prostate, 1.72 µM; in the assay on M14 melanoma it was 1.92 µM; in the assay with ACHN renal, 1.82 µM. Also, the TGI is 10.8 µM and 3.59 µM in the assay with RPMI-8226 leukemia; 18.8 µM and 5.68 µM with HT29 colon; 10.8 µM and 5.04 µM in the assay with A549 NSCLC; 6.91 µM and 8.2 µM with SF-268 CNS; 10.7 µM and 10.8 µM with HL-60(TB) leukemia; 9.59 µM and 3.51 µM in the assay on SW-620 colon. The TGI in the assay on OVCAR-5 ovarian is 26.6 µM and 5.67 µM; in the assay with DU-145 prostate, 13.5 µM and 5.95 µM; in the assay on M14 melanoma, 6.79 µM and 5.61 µM; in the assay on ACHN renal, 4.34 µM and 3.33 µM.
As to `COc1ccc2c3c1OC1C(OC)(OC)C=C[C@@]4(Br)[C@@H](C2)N(CC2CC2)CC[C@]314` (some centres not stated), the TGI with RPMI-8226 leukemia, with HT29 colon, in the assay on A549 NSCLC, in the assay on SF-268 CNS, in the assay with HL-60(TB) leukemia and in the assay on SW-620 colon was more than 100 µM throughout. Besides, the TGI in the assay with OVCAR-5 ovarian, in the assay with DU-145 prostate, with M14 melanoma and in the assay with ACHN renal was more than 100 µM each time.
